# In patent publication US6436996B1, “Modulation of nitric oxide production” (Duke University, priority 1997, dated 2002):
# Entries after “also recorded” stand apart in the source; their conditions may differ.
# Tested on: human monocyte-derived macrophage cells
# Test: Nitrite (NO) production in gamma-IFN-primed human monocyte-derived macrophages, Griess reaction
# Type: cell-based
# Conditions: for nitrite levels compared to poly I:C treatment alone: Aβ peptide (5 μM) plus APOE (10 nM) plus poly I:C (50 μg/ml); for change in nitrite levels compared to untreated human MDMs: Aβ peptide alone, 1 to 10 μgM
# Method: Cell Cultures: Human monocytes from normal, adult volunteers were generously provided by Dr. D. Webb, Center for Biologics Evaluation and Research, NIH, Bethesda, Md. Elutriated monocytes were cultured in Dulbecco's Modified Eagle Medium (DMEM) containing 20% fetal calf serum, 10% human […] (ABI Technologies, Columbia, Md.) and […] human M-Colony Stimulating Factor (M-CSF, Genzyme, Boston, Mass.) at 37° C. in a humidified atmosphere of 5% CO2, 95% air. After 5 to 7 days, morphological changes including spreading and branching of the cells signaled differentiation from monocytes to macrophages and are now commonly called “Monocyte-Derived Macrophages” (MDMs). MDM cells were removed from the flasks by gentle trypsinization, plated at 40,000 cells/well into 96 well microtiter plates and allowed to recover overnight. These MDM cells were then primed by exposure to 1000 U/ml recombinant human gamma interferon (gamma-IFN, Sigma Chemical Co., St. Louis, Mo.) diluted into HL-1 serum free media (Hycor Biomedical Include, Irvine, Calif.). At the end of 12 h priming with gamma-IFN, the priming media was replaced with HL-1 serum free media before experimental treatments as listed in the text. Following experimental treatments, the media was removed and assayed for nitrite levels using the Griess reaction [Colton, C. et al., Mol. Chem. Neuropathol. 28, 15-20 (1996)].
# Treatment Factors and Conditions: M-CSF-differentiated and gamma-IFN-primed monocyte-derived macrophage cells were treated by incubation with varying concentrations of Aβ 1-40, its reverse sequence Aβ 40-1 and a non-toxic Aβ fragment, Aβ 1-28 (Bachem, Torrance, Calif.). Aβ peptides were diluted into sterile, double-distilled water and allowed to aggregate at room temperature for 48 h and then stored at −80° C. until use. Human apolipoprotein-E purified protein (Chemicon International, Inc., Temecula, Calif.) was reconstituted in serum free media and added to cells. The double stranded polyribonucleotide, polyinosinic:polycytidylic acid (poly I:C potassium salt, Sigma Chemical Co., St. Louis, Mo.) was also reconstituted into serum free media and used to stimulate nitric oxide (NO) production as described by J. Snell et al., Journal of Leukocyte Biology, 62, 369 (1997).
# Measurement of Nitric Oxide (NO): After treatment, conditioned media was removed from cells and the level of nitrite, which is a stable end-product of NO release in biological systems, measured using the Griess reaction [Colton, C., supra]. Briefly, conditioned media were transferred to a new 96 well microtiter plate and an equal volume of Griess reagents were added to each well. After 10 minutes of incubation at room temperature, color development was assessed at 550 nm using a plate reader. Nitrite levels are presented as μM/well which contained 40,000 cells and an average (±SEM) obtained for at least 4 wells assayed per experimental condition for each of at least 4 individual donors. Treatment with the nitric oxide synthase (NOS) inhibitor, N-G-methyl-l-arginine (L-NMMA) was used to determine the level of NOS-mediated NO production. Statistical significance was determined using a one way analysis of variance (ANOVA).
molecule,measurement,setting,value
"CNC(=N)NCCC[C@H](N)C(=O)O [L-NMMA, N-G-methyl-l-arginine]",effect of NOS inhibitor on nitrite levels,"L-NMMA added to APOE plus poly I:C stimulated MDMs, data not shown",reduced nitrite levels to those seen in the unstimulated controls; also recorded: inhibitable
"APOE: Human apolipoprotein-E purified protein (Chemicon International), reconstituted in serum free media",overall increase in nitrite levels compared to untreated or APOE-alone treated MDMs,10 nM APOE together with 50 μg/ml poly I:C,282%
same,increase in nitrite levels compared to poly I:C alone,"10 nM APOE together with 50 μg/ml poly I:C, 5 days, p<0.009",68%
same,nitrite levels compared to untreated controls,"APOE alone, 1 nM to 100 nM, 5 days, gamma-IFN-primed MDMs",no significant increase
same,NO released compared to unprimed cells,APOE and poly I:C,~3 fold
Aβ 1-28: non-toxic amyloid-βeta peptide fragment 1-28 (Bachem),nitrite levels compared to poly I:C treatment alone,5 days,same result
same,change in nitrite levels compared to untreated human MDMs,"5 days, gamma-IFN-primed MDMs",no significant change
"Aβ 1-40: toxic amyloid-βeta peptide 1-40 fragment of APP (Bachem), aggregated 48 h",nitrite levels compared to untreated control MDMs,Aβ 1-40 and APOE in the absence of poly I:C,no significant effect
same,nitrite levels compared to poly I:C treatment alone,5 days,no significant difference
same,change in nitrite levels compared to untreated human MDMs,"5 days, gamma-IFN-primed MDMs",not significantly different; also recorded: no significant change
same,nitrite levels compared to poly I:C alone,"Aβ peptide combined with 50 μg/ml poly I:C, 5 days",not significantly different
"boiled APOE: APOE denatured by boiling, control for non-denatured APOE",nitrite levels compared to poly I:C alone,"boiled (denatured) APOE together with poly I:C, data not shown",unable to increase NO production
polyinosinic:polycytidylic acid [poly I:C],increase in nitrite levels compared to untreated controls,"gamma-IFN-primed MDMs, 50 μg/ml poly I:C alone, 5 days",126%
